Experimental data taken from ChEMBL document CHEMBL3272060, “Selective inhibition of the monosynaptic spinal reflex by a series of hydroxylated alkylaminoindans” (J Med Chem, 1977).

Legend:
Felis catus [1] = test: Toxicity in cat assessed as motor deficit at 10 mg/kg, po; assay type: organism-based; design: dose 10 mg/kg, route oral; details: in vivo
Felis catus [2] = test: Inhibition of electrical stimulation-induced polysynaptic spinal reflex response in unanesthetized decerebrated cat spinal cord segment at 5 mg/kg, iv relative to control; assay type: functional
Felis catus [3] = test: Inhibition of electrical stimulation-induced monosynaptic spinal reflex response in unanesthetized decerebrated cat spinal cord segment assessed as duration at 5 mg/kg, iv; assay type: functional
Felis catus [4] = test: Toxicity in cat assessed as motor deficit at 2 to 4 mg/kg, iv; assay type: organism-based; design: dose 2-4 mg/kg, route intravenous; details: in vivo
Felis catus [5] = test: Inhibition of electrical stimulation-induced monosynaptic spinal reflex response in unanesthetized decerebrated cat spinal cord segment at 5 mg/kg, iv relative to control; assay type: functional
Felis catus [6] = test: Induction of electrical stimulation-induced monosynaptic spinal reflex response in unanesthetized decerebrated cat spinal cord segment at 5 mg/kg, iv relative to control; assay type: functional
Felis catus [7] = test: Inhibition of electrical stimulation-induced polysynaptic spinal reflex response in unanesthetized decerebrated cat spinal cord segment assessed as duration at 5 mg/kg, iv; assay type: functional
Felis catus [8] = test: Inhibition of electrical stimulation-induced polysynaptic spinal reflex response in unanesthetized decerebrated cat spinal cord segment at 2 mg/kg, iv relative to control; assay type: functional
Felis catus [9] = test: Inhibition of electrical stimulation-induced polysynaptic spinal reflex response in unanesthetized decerebrated cat spinal cord segment at 10 mg/kg, iv relative to control; assay type: functional
Felis catus [10] = test: Inhibition of electrical stimulation-induced monosynaptic spinal reflex response in unanesthetized decerebrated cat spinal cord segment at 2 mg/kg, iv relative to control; assay type: functional
Felis catus [11] = test: Inhibition of electrical stimulation-induced monosynaptic spinal reflex response in unanesthetized decerebrated cat spinal cord segment at 10 mg/kg, iv relative to control; assay type: functional
Felis catus [12] = test: Inhibition of electrical stimulation-induced monosynaptic spinal reflex response in unanesthetized decerebrated cat spinal cord segment assessed as duration at 2 mg/kg, iv; assay type: functional
Felis catus [13] = test: Inhibition of electrical stimulation-induced monosynaptic spinal reflex response in unanesthetized decerebrated cat spinal cord segment assessed as duration at 10 mg/kg, iv; assay type: functional
Felis catus [14] = test: Induction of electrical stimulation-induced monosynaptic spinal reflex response in unanesthetized decerebrated cat spinal cord segment assessed as duration at 5 mg/kg, iv; assay type: functional

| SMILES | Activity (Felis catus [1]) | inhibition in vivo at 5 mg/kg (Felis catus [2]) | Time (Felis catus [3]) | Activity (Felis catus [4]) | inhibition in vivo at 5 mg/kg (Felis catus [5]) | other results |
| --- | --- | --- | --- | --- | --- | --- |
| CC(=O)O[C@H]1CC2=C(CC(N(C)C)C2)C[C@H]1OC(C)=O.Cc1ccc(S(=O)(=O)O)cc1 (stereo not given in full) | Non-toxic | 0% | 1 h | Non-toxic | 0% |  |
| CN(C)C1CC2=C(C1)C[C@H](O)[C@H](O)C2 (stereo not given in full) | Non-toxic | 0% |  | Non-toxic |  | inhibition in vivo at 5 mg/kg (Felis catus [6]): 0% |
| OC1CCC2=C(C1)CC(NC1CCCCC1)C2 (stereo not given) |  | 0% |  |  | 0% |  |
| O[C@@H]1CC2=C(CC(N3CCCCC3)C2)C[C@@H]1O (stereo not given in full) | Non-toxic | 0% | <0.25 h | Non-toxic | 0% |  |
| CC(=O)O[C@H]1CC2=C(CC(N3CCCCC3)C2)C[C@H]1OC(C)=O (stereo not given in full) | Non-toxic | 0% | >2 h | Non-toxic | 50% |  |
| COc1cc(C(=O)OC2CCC3=C(C2)CC(N2CCCCC2)C3)cc(OC)c1OC (stereo not given) |  | 0% |  |  | 0% |  |
| OC1CCC2=C(C1)CC(N1CCCC1)C2 (stereo not given) | Non-toxic | 0% | 0.25 h | Non-toxic | 20% | Time (Felis catus [7]): <15 min |
| CCCCNC1CC2=C(CC(O)CC2)C1 (stereo not given) |  | 0% |  |  | 0% |  |
| CCCCN(Cc1ccccc1)C1CC2=C(CC(O)CC2)C1.Cl (stereo not given) | Non-toxic | 0% | 1 h | Non-toxic | 20% |  |
| Cl.OC1CCC2=C(C1)CC(CN1CCCCC1)C2 (stereo not given) | Non-toxic | 0% | 0.25 h | Non-toxic | 0% |  |
| O[C@@H]1CC2=C(CC(CN3CCCCC3)C2)C[C@@H]1O (stereo not given in full) |  | 0% |  |  | 0% |  |
| Cl.OC1CCC2=C(C1)CC(CCN1CCCCC1)C2 (stereo not given) | Non-toxic | 0% | 0.25 h | Non-toxic | 20% |  |
| CN1CC2=C(C[C@H](O)[C@H](O)C2)C1 | Non-toxic | 0% |  | Non-toxic | 0% |  |
| CC(=O)O[C@H]1CC2=C(C[C@@H]1OC(C)=O)CN(C)C2 |  | 0% |  |  | 0% |  |
| OC1CCC2=C(C1)CN(C1CCCCC1)C2 (stereo not given) | Non-toxic | 0% | <0.25 h | Non-toxic | 0% |  |
| OC1CC=C(CCN2CCCCC2)CC1O (stereo not given) |  | 0% |  |  | 0% |  |
| CC(=O)OC1CC=C(CCN2CCCCC2)CC1OC(C)=O (stereo not given) |  | 0% |  |  | 0% |  |
| CN(C)CCCC1CC[C@@]2(O)CC=CC[C@]12O (stereo not given in full) | Non-toxic | 0% |  | Non-toxic | 0% |  |

| SMILES | Activity (Felis catus [1]) | inhibition in vivo at 5 mg/kg (Felis catus [2]) | Time (Felis catus [3]) | Activity (Felis catus [4]) | inhibition in vivo at 5 mg/kg (Felis catus [5]) | other results |
| --- | --- | --- | --- | --- | --- | --- |
| Oc1ccc2c(c1)CC(N1CCCCC1)C2 (stereo not given) | Non-toxic | 0% | <0.25 h | Non-toxic | > 80% |  |
| Br.OC1CC2=C(CC=CC2)C1CCCN1CCCCC1 (stereo not given) | Non-toxic | 0% | 1 h | Non-toxic | 20% |  |
| CN(C)CCCC1C2=C(CC=CC2)CCC1O (stereo not given) |  | 0% |  |  | 0% |  |
| O[C@@H]1CC2CC(CN3CCCCC3)CC2C[C@@H]1O (stereo not given in full) |  | 0% |  |  | 0% |  |
| OC1CCC2=C(C1)CC(N1CCCCC1)C2 (mixture of isomers; 5) | Non-toxic |  |  | Non-toxic |  | inhibition in vivo at 2 mg/kg (Felis catus [8]): 0%; inhibition in vivo at 10 mg/kg (Felis catus [9]): 0%; inhibition (INH) (Felis catus [10]): >80%; inhibition in vivo at 10 mg/kg (Felis catus [11]): > 80%; Time (Felis catus [12]): 1 h; Time (Felis catus [13]): >2 h |
| OC1CCC2=C(C1)CC(N1CCCCC1)C2 (mixture of isomers; 6) |  |  |  |  |  | inhibition (INH) (Felis catus [10]): 50%; Time (Felis catus [12]): 0.25 h |
| CC(=O)O[C@H]1CC2=C(CC(N(C)C)C2)C[C@@H]1OC(C)=O (relative stereo) |  | 0% |  |  | 0% |  |
| O[C@H]1CC2=C(CC(N3CCCCC3)C2)C[C@@H]1O (relative stereo) | Non-toxic | 0% | 0.25 h | Non-toxic | 50% |  |
| CC(=O)O[C@@H]1CC2=C(CC(N3CCCCC3)C2)C[C@H]1OC(C)=O (relative stereo) |  | 0% |  |  | 0% |  |
| O[C@@H]1CC2=C(CC(N3CCCCC3)C2)C[C@H]1Oc1ccccc1 (relative stereo) | Non-toxic | 0% | <0.25 h | Non-toxic | 20% |  |
| O[C@@H]1CC2=C(CC(N3CCCCC3)CC2)C[C@@H]1O (relative stereo) |  | 0% |  |  | 0% |  |
| CC(=O)O[C@H]1CC2=C(CCC(N3CCCCC3)C2)C[C@H]1OC(C)=O (relative stereo) |  | 0% |  |  | 0% |  |
| O[C@@H]1CC2=C(CC(CN3CCCCC3)C2)C[C@H]1O (relative stereo) | Non-toxic | 0% | 0 h | Non-toxic | 20% |  |
| CC(=O)O[C@@H]1CC2=C(CC(CN3CCCCC3)C2)C[C@H]1OC(C)=O.Cc1ccc(S(=O)(=O)O)cc1 (relative stereo) | Non-toxic | 0% | <0.25 h | Non-toxic | 20% |  |
| CN1CC2=C(C[C@H](O)[C@@H](O)C2)C1 (relative stereo) | Non-toxic | 0% | <0.25 h | Non-toxic | 0% |  |
| O[C@]12CC=CC[C@]1(O)CC(N1CCCCC1)C2 (relative stereo) | Non-toxic |  |  | Non-toxic |  | Time (Felis catus [7]): <15 min; inhibition in vivo at 5 mg/kg (Felis catus [6]): 0%; Time (Felis catus [14]): <15 min |
| OC1CCC2=C(C1)CC(N1CCCCC1)C2 (stereo in doubt; 7) |  |  |  |  |  | Time (Felis catus [12]): >2 h |
